Source: ChEMBL document CHEMBL5316291 (J Med Chem, 2023)
pIC50: −log10 of the molar value. Active and inactive are the calls of the source. The calls are words filed in the database; no cut-off is given here.

Experiments:
CT26 [1] = assay: Antitumor activity against mouse CT26 cells implanted in BALB/c mouse assessed as increase in infiltration of CD3 positive CD4 positive T lymphocytes in tumors at 50 mg/kg, po measured after 14 days by flow cytometry (reference value: 7.95%); assay type: functional; conditions: time 14 day
[2] = biological target: Poly [ADP-ribose] polymerase 1 (Homo sapiens, UniProt P09874); assay: Inhibition of human recombinant N-terminal GST-tagged PARP1 (2 to 1014 end residues) incubated for 1 hr by ELISA assay
CT26 [3] = assay: Antitumor activity against mouse CT26 cells implanted in po dosed BALB/c mouse assessed as increase in IFN-beta levels at 100 mg/kg measured after 14 days by RT-qPCR analysis; assay type: functional, organism-based; conditions: time 14.0 day
CT26 [4] = assay: Antitumor activity against mouse CT26 cells implanted in po dosed BALB/c mouse assessed as increase in PARP7 levels at 50 to 100 mg/kg measured after 14 days by RT-qPCR analysis; assay type: functional, organism-based; conditions: dose 50-100 mg/kg, time 14.0 day
NCI-H1373 = assay: cells; conditions: Homo sapiens, NCI-H1373, 144 h
[5] = Toxicity in BALB/c mouse implanted with mouse CT26 cells assessed as kidney damage at 100 mg/kg, po measured for 14 days by hematoxylin and eosin staining based fluorescence microscopic analysis; assay type: organism-based; conditions: in vivo, 336 h, time 14 day
[6] = biological target: Poly [ADP-ribose] polymerase 2 (Homo sapiens, UniProt Q9UGN5); assay: Inhibition of human recombinant N-terminal GST-tagged PARP2 (2 to 583 residues) expressed in baculovirus infected Sf9 cells expression system incubated for 1 hr by ELISA assay
CT26 [7] = assay: Antitumor activity against mouse CT26 cells implanted in po dosed BALB/c mouse assessed as increase in CXCL10 levels at 100 mg/kg measured after 14 days by RT-qPCR analysis; assay type: functional, organism-based; conditions: time 14.0 day
[8] = AUC(0 to infinity) in ICR mouse at 10 mg/kg, po measured upto 24 hrs by LC-MS/MS analysis; assay type: ADME, organism-based; parameters: dose 10 mg/kg, time < 24 hrs, route po; conditions: in vivo
[9] = biological target: Protein mono-ADP-ribosyltransferase PARP14 (Homo sapiens, UniProt Q460N5); assay: Inhibition of human recombinant N-terminal 6his-tagged / GST-tagged PARP14 (1470 to 1801 end residues) expressed in baculovirus infected Sf9 cells expression system incubated for 1 hr by ELISA assay
[10] = biological target: T1, Protein mono-ADP-ribosyltransferase TIPARP (Homo sapiens, UniProt Q7Z3E1); assay: Inhibition of human recombinant N-terminal FLAG-tagged PARP7 (400 to 657 end residues) incubated for 1 hr by ELISA assay
T1 sequence (Q7Z3E1 whole entry): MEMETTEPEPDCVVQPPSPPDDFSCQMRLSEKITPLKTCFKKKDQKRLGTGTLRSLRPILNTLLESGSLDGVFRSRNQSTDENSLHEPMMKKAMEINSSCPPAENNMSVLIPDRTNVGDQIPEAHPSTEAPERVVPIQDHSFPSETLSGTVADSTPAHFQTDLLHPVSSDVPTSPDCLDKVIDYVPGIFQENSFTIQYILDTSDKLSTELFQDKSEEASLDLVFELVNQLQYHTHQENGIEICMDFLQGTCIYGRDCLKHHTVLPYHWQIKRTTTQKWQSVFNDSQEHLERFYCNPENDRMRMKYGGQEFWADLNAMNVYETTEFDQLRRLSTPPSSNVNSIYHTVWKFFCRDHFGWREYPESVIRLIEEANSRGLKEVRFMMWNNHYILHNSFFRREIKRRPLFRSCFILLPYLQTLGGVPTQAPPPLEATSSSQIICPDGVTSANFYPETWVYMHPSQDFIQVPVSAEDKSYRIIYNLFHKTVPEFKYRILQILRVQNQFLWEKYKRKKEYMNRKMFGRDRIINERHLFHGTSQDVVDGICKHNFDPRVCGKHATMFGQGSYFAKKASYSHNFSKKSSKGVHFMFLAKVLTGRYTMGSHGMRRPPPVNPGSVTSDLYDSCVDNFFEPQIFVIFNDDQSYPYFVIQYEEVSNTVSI

[11] = Tmax in ICR mouse at 1 mg/kg, iv measured upto 24 hrs by LC-MS/MS analysis; assay type: ADME, organism-based; conditions: in vivo
CT26 [12] = assay: cells; conditions: Mus musculus, CT26, 144 h
[13] = biological target: T2, Protein mono-ADP-ribosyltransferase PARP10 (Homo sapiens, UniProt Q53GL7); assay: Inhibition of human recombinant N-terminal FLAG-tagged / C-terminal Strep-tagged PARP10 (805 to 1025 end residues) expressed in baculovirus infected Sf9 cells expression system incubated for 1 hr by ELISA assay
T2 sequence (Q53GL7 whole entry): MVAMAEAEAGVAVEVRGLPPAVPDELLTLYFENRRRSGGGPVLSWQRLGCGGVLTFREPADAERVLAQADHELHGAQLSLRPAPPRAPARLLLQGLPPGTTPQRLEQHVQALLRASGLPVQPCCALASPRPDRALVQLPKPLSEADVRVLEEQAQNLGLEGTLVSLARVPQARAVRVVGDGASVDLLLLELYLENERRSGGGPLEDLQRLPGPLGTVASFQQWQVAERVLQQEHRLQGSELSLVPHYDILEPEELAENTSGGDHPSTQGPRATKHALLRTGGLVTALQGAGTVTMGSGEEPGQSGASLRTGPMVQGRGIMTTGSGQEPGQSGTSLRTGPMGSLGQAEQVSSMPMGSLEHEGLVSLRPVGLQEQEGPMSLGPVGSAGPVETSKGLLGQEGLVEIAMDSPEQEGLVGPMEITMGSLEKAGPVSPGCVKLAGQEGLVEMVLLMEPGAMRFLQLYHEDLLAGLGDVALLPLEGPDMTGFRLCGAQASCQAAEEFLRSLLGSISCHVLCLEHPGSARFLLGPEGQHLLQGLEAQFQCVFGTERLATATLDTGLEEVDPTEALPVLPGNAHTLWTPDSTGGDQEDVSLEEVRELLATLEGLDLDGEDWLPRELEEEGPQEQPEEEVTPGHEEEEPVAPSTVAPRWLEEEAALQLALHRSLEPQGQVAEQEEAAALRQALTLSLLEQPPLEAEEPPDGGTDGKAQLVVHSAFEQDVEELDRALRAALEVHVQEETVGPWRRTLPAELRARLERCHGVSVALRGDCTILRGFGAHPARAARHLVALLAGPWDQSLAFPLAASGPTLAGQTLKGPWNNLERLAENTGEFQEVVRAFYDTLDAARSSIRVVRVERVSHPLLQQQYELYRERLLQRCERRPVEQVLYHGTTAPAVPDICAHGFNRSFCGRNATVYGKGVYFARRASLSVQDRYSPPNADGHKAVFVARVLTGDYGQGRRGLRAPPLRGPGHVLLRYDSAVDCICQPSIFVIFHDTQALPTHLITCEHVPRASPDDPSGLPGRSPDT

CT26 [14] = assay: Antitumor activity against mouse CT26 cells implanted in BALB/c mouse assessed as nuclear chromatin margination at 25 to 100 mg/kg, po bid measured for 14 days by hematoxylin and eosin staining based fluorescence microscopic analysis; assay type: functional, organism-based; conditions: dose 25-100 mg/kg, time 14.0 day

Poly [ADP-ribose] polymerase 1, sequence (P09874 whole entry): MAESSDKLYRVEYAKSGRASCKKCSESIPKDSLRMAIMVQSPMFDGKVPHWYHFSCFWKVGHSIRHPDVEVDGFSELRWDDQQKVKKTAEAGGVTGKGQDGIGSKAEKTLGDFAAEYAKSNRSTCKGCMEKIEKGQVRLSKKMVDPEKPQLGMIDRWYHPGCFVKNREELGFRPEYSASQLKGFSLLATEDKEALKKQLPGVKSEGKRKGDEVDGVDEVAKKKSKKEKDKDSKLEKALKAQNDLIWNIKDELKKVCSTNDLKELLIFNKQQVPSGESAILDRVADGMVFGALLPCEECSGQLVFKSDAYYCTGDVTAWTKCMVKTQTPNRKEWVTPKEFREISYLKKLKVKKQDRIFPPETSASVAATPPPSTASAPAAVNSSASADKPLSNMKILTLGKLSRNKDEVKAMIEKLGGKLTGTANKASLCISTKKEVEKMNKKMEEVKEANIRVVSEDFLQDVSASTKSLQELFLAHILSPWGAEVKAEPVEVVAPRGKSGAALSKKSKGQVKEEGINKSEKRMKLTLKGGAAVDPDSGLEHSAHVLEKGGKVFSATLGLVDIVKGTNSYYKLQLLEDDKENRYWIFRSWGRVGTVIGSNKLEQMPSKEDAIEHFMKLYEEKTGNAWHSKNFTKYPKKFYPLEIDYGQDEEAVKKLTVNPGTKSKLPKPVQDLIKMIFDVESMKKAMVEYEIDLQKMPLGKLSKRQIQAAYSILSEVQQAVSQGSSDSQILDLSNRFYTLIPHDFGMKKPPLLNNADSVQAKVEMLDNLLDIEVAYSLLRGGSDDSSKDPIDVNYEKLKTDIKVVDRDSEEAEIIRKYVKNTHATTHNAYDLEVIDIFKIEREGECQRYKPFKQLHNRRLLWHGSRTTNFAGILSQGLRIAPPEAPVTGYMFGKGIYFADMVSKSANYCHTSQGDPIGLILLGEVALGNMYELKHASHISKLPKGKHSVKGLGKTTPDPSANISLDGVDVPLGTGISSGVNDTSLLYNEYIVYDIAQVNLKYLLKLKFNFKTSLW
Protein mono-ADP-ribosyltransferase PARP14, sequence (Q460N5 whole entry): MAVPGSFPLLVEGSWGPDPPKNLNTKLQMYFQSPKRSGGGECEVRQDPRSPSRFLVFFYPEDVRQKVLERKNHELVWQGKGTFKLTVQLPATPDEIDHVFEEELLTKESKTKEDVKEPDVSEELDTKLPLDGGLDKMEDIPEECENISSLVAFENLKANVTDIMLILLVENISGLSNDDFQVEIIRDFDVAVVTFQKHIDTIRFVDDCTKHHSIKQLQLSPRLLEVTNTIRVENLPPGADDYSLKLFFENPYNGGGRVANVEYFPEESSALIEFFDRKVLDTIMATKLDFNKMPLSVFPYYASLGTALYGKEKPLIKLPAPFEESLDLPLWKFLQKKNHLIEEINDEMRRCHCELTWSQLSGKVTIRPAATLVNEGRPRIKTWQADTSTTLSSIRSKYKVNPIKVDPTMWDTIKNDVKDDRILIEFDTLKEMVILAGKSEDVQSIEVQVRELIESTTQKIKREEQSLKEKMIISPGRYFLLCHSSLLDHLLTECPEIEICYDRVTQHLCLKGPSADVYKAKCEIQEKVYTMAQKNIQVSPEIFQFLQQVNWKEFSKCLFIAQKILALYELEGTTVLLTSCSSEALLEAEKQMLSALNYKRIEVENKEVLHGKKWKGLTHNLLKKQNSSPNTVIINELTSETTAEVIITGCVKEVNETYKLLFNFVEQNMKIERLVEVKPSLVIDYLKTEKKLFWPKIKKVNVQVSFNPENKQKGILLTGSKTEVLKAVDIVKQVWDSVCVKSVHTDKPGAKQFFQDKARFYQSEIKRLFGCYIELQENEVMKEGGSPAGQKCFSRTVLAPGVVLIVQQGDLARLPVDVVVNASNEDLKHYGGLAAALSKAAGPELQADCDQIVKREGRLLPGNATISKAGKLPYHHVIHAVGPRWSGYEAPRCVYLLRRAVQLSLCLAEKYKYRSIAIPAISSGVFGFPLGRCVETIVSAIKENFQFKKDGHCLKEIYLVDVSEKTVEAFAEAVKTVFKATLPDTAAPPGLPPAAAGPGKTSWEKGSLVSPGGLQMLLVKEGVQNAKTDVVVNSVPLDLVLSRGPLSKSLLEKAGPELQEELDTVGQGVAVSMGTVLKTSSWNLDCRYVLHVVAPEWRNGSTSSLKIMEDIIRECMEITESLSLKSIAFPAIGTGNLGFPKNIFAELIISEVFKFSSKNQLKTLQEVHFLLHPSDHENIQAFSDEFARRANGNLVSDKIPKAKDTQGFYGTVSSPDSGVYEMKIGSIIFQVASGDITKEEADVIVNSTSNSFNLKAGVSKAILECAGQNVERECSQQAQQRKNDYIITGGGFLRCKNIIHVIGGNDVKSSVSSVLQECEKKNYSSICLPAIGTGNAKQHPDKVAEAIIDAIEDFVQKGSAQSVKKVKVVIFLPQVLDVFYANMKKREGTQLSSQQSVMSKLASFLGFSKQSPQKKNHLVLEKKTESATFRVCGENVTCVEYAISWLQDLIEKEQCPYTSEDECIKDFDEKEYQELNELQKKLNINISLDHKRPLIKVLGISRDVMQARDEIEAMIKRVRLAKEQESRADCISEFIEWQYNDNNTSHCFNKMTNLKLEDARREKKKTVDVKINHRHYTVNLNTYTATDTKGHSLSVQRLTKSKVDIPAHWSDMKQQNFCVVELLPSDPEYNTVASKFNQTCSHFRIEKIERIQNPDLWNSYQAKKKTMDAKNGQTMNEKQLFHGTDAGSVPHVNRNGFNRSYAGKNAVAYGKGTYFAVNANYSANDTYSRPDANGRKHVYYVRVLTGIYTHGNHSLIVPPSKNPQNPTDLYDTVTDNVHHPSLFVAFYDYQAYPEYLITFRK
Poly [ADP-ribose] polymerase 2, sequence (Q9UGN5 whole entry, the tested form may be a part): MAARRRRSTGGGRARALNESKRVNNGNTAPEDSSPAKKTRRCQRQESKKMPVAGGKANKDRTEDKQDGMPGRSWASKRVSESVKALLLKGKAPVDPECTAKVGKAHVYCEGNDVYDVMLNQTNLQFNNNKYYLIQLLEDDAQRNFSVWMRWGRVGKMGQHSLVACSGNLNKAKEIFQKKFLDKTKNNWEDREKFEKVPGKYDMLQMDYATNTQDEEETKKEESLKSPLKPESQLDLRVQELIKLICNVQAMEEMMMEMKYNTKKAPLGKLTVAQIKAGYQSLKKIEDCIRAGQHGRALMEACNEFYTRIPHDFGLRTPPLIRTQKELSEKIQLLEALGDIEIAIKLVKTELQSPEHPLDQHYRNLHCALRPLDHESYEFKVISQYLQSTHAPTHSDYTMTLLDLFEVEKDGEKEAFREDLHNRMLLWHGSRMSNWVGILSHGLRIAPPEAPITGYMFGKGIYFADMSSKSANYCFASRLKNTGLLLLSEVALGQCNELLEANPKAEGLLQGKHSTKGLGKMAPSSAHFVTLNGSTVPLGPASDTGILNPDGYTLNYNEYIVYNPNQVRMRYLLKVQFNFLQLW

C[C@@H](CN1CC(C(=O)N2CCN(c3ncc(C(F)(F)F)cn3)CC2)C1)Nc1cn[nH]c(=O)c1C(F)(F)F
Activity (CT26 [1]): 63.1% | pIC50 [2]: < 5.30 | Activity (CT26 [3]): Active | Activity (CT26 [4]): inactive | pIC50 (NCI-H1373): 5.96 | Activity [5]: Non-Toxic | pIC50 [6]: 6.26 | Activity (CT26 [7]): Active | AUC [8]: 5663.5 ng·h/mL | pIC50 [9]: 5.66 | pIC50 [10]: 8.12 | Tmax [11]: 4.8 min | pIC50 (CT26 [12]): 4.71 | pIC50 [13]: 6.49 | Activity (CT26 [14]): Active
